In publication PMC6701825, “Antiproliferative and Antimigratory Effects of a Novel YAP–TEAD Interaction Inhibitor Identified Using in Silico Molecular Docking” (Journal of Medicinal Chemistry, 2019):

Legend:
RaVSMCs = experiment: Real-time IncuCyte scratch wound migration assay in RaVSMCs; format: cell-based, rat
Protocol: (§1) Cell proliferation was measured using the Click-iT EdU 488 assay (Sigma-Aldrich). Briefly, the cells were treated with indicated concentrations of compounds for 24 h with the last 4 h being in the presence of 10 μM EdU. The cells were fixed in 4% formaldehyde and stained for EdU incorporation, following the kit’s standard protocol. The cells were counterstained with Hoechst 33342 nucleic acid for 20 min. Fluorescent images of at least three fields of view per well were counted using ImageJ software. Real-time analysis of cell migration was performed using an IncuCyte ZOOM live cell imaging system (Essen BioScience) according to the manufacturer’s instructions. Briefly, the cells were seeded (1.2 × 10^4 cells/well for HeLa cells, 1.5 × 10^4 cells/well for RaVSMCs, and 1 × 10^4 cells/well) into ImageLock 96-well plates. After 36 h, the cells were pretreated overnight with indicated concentrations of compounds. The wells were scratched using a WoundMaker tool, and the media were replaced containing test compounds. Phase contrast images of cell migration into the wounded area were acquired hourly for 24 h. Relative wound confluence was calculated using the Cell Migration Image analysis module of the IncuCyte ZOOM software.
Supplement Figure 5: Effect of low micromolar doses of CPD3 on rat VSMC migration.
VSMC were incubated with the indicated doses of CPD3 for 18 hours before quantification […]

CTGF promoter = experiment: CTGF-luciferase reporter in HeLa cells; format: cell-based, human; details: 6 h, indicated concentrations
Text: (§2) Activation of TEAD transcription factors in response to YAP binding induces the expression of many genes that encode proteins known to be involved in promoting cell proliferation and migration (see Supplement Figure 14). The best characterized TEAD target genes associated with the promotion of cell proliferation and migration are CCN1 and CTGF.[39],[59],[60] […] We therefore tested whether CPD3 inhibited the promoter activity of known TEAD target genes, CCN1 and CTGF, in the HeLa transformed cell line and primary rat VSMCs (RaVSMCs). Cells were transfected with plasmids expressing bioluminescent firefly luciferase reporter genes under the control of either the CCN1 or CTGF promoter regions. […] As both CCN1 and CTGF are classical TEAD target genes, this is consistent with the inhibition of TEAD activity by CPD3.
(§3) TNT1-minP reporter containing the Troponin-T minimal promoter was generated by digesting 8xGTIIC-luciferase plasmid (Addgene #34615) with Kpn1 and BglII to remove the TEAD elements, followed by blunt end re-ligation. A 2.177 kb fragment of the human CCN1 promoter containing two proximal TEAD elements (Hg19;chr1:86044316–chr1:86046493) was described previously[39] and cloned into pGL4-luciferase (Promega). […]

CCN1 promoter [1] = experiment: CCN1-luciferase reporter in RaVSMCs; format: cell-based, rat
Text: as §2
Figure 9 Compound 3.1 inhibits TEAD target gene expression, cell proliferation, and cell migration in RaVSMCs. […] Total RNA was analyzed for mRNA levels of TEAD-target genes (D) or constitutive housekeeping genes (E) by qRT-PCR. […] Total cell lysates were analyzed for CCN1 protein expression by Western blotting (F). […] RaVSMCs (I) or HuVSMC (J) were treated with indicated concentrations of compound 3.1 and cell migration quantified using IncuCyte real time migration assay (n = 4). […]

[2] = system: TEAD-independent minimal TNT1 gene promoter; experiment: Minimal TNT1 promoter-luciferase (minP-LUC) reporter in HeLa cells; format: cell-based, human; details: 6 h
Text: as §2, §3

[3] = system: TEAD-dependent transcriptional activity; experiment: 8xTEAD secreted nanoluciferase (TEAD-NLUC) reporter assay in HeLa cells; format: cell-based, human; details: HeLa TEAD-NLUC, 6 h
Text: The shortlisted sets of 16 compounds were first assayed for their ability to inhibit TEAD-dependent transcriptional activity in HeLa cells that had been transduced with a recombinant lentiviral vector expressing secreted bioluminescent nanoluciferase (NLUC) reporter gene enzyme, which is expressed under the control of a promoter region containing eight TEAD DNA-binding elements (TEAD-NLUC).
Compounds were initially screened for ability to inhibit TEAD-dependent transcriptional activity in HeLa cells transduced with a lentiviral vector expressing secreted nanoluciferase under the control of multimerized TEAD consensus elements (5′-[…]-3′). 8xTEAD NanoLuc was generated by cloning the 8xTEAD promoter from the 8xTEAD-Luc plasmid (Addgene #34615) into the pENTR gateway entry vector (Promega). This was then recombined into pLNT-sec-Nluc-2A-eGFP destination vector (supplied by Tristan McKay; University of Manchester). Lentiviruses were generated by Viafect-mediated co-transfection of pLNT8x-TEAD-sec-Nluc-2A-eGFP, Δ8.9, and VSV-G vectors into HEK293T cells (ATCC), and lentiviral-containing culture supernatants were used to infect HeLa cells in the presence of 6 μg/mL polybrene. For compound screening, 8xTEAD NanoLuc-transduced HeLa cells were seeded at 2 × 10^4 cells/well in 96-well plates. After 48 h, the cells were washed in PBS and incubated with test compounds at the indicated concentrations for 2 h. The cells were washed again in PBS and incubated with the compound for a further 4 h. Conditioned culture medium (50 μL) was assayed for secreted nanoluciferase activity using NanoGlo activity assays kit (Promega) and a Glomax Discover luminometer.

CCN1 promoter [4] = experiment: CCN1-luciferase reporter in HeLa cells; format: cell-based, human; details: 6 h, indicated concentrations
Text: as §2, §3

HeLa cells [5] = experiment: Real-time IncuCyte scratch wound migration assay in HeLa cells; format: cell-based, human
Protocol: as §1

HeLa cells [6] = experiment: EdU proliferation assay in HeLa cells; format: cell-based, human; details: for cell proliferation (EdU incorporation): 18 h then 6 h 10 μM EdU
Protocol: as §1

SMILES	cell migration (scratch wound) (RaVSMCs)	CTGF-luciferase reporter gene activity (CTGF promoter)	IC50 (CCN1 promoter [1]; Rattus norvegicus, 6 hr, read-out: IC50, CCN1-LUC (as printed in Figure 9B))	activity of TEAD-independent minimal TNT1 promoter (minP-LUC) [2]	concentration at which TEAD-dependent NLUC secretion was significantly inhibited [3]	CCN1-luciferase reporter gene activity (CCN1 promoter [4])	cell migration (scratch wound) (HeLa cells [5])	doses at which EdU incorporation was significantly inhibited (HeLa cells [6])	cell proliferation (EdU incorporation) (HeLa cells [6])	CCN1-luciferase reporter gene activity (CCN1 promoter [1]; 6 h, indicated concentrations)	IC50 ([3]; Homo sapiens, HeLa, read-out: IC50, TEAD-dependent NLUC secretion)
Cc1ccc2c(c1)c1c3n2CCNC3CCC1 (stereo not drawn) [CPD3.1]	inhibited in a dose-dependent manner by 2, 10, and 20 μM CPD3.1	dose-dependent inhibition	48 µM	without affecting expression	20 µM	dose-dependent inhibition	significantly inhibited HeLa cell migration at 40, 60, and 80 μM	above 40 μM	dose-dependently inhibited HeLa cell proliferation		
Cc1ccc2c(c1)c1c3n2CCN(CC(O)CN2CCN(C(=O)c4ccco4)CC2)C3CCC1 (stereo not drawn) [CPD3]	dose-dependently inhibited	strong and significant dose-dependent inhibition		not inhibited by any concentration	60 µM	strong and significant dose-dependent inhibition	dose-dependently inhibited		dose-dependently inhibited cell proliferation	strong and significant dose-dependent inhibition	> 110 µM
